One test has as its system Escherichia coli 36. Put plainly: Synergistic Protecting Effect on experimental mice infection. Type of test: in vivo, ICR strain-mice (infected with Escherichia coli 36). Particulars: combination 1:1 by weight, subcutaneous, one hour after i.p. challenge, survival over 4 days. How it is done: (i) Combination of Compound C (Compound of the present invention) and Ceftizoxime (known antimicrobial agent, hereinafter referred to as CZX) (1:1 by weight).
(ii) Combination of Compound C (Compound of the present invention) and Cefazolin (known antimicrobial agent, hereinafter referred to as CEZ) (1:1 by weight).
4-week-old male ICR strain-mice, weighing 21.5±1.5 g.
1.1×10^5 Colony forming unit of Escherichia coli 36 suspended in 0.5 ml of 5% mucin were intraperitoneally injected.
One hour after challenge, mice were treated subcutaneously with various doses of test compound. The ED50 values were calculated by the probit method from the number of mice surviving 4 days of observation.

Test [1] deals with Staphylococcus aureus 209P JC-1. As to the kind of experiment: in vitro antimicrobial activity, two-fold agar-plate dilution method (MIC). Type of test: cell-based. Conditions: S. aureus 209P JC-1, HI-agar, 37° C., 20 hours. On the procedure:
(§1) In vitro Antimicrobial activity was determined by the two-fold agar-plate dilution method as described below.
(§2) One loopful of an overnight culture of each test strain in Trypticase-soy broth (10^6 viable cells per ml) was streaked on heart infusion agar (HI-agar) containing graded concentrations of the test compound, and the minimal inhibitory concentration (MIC) was expressed in terms of μg/ml after incubation at 37° C. for 20 hours.

The subject of test [2] is Esherichia coli NIHJ JC-2. Described as above. Format: cell-based. Conditions: Escherichia coli, NIHJJC2; E. coli NIHJ JC-2; HI-agar, 37° C., 20 hours. How it is done: as §1, §2
The target in the next test is R-TEM Penicillinase (Escherichia coli, UniProt P62593). As to the kind of experiment: Inactivation of β-Lactamase, direct spectrophotometric assay with chromogenic cephalosporin. Format: biochemical, Escherichia coli 18. Conditions: 100 μg/ml, 5 minutes at 37° C.
Chain of R-TEM Penicillinase (P62593 24-286 limits assumed): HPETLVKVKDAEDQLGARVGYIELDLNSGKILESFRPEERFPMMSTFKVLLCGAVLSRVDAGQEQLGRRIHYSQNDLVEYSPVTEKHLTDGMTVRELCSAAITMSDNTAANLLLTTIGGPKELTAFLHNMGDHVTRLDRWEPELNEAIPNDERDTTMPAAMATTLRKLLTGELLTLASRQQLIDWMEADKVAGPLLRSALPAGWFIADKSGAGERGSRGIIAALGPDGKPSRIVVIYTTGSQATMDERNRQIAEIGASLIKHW
A further test has as its target Ia Cephalosporinase (Enterobacter cloacae, UniProt P05364). The description is as above. Format: biochemical, Enterobacter cloacae 91. Conditions: 5 min, read-out: Inactivation (%). On the procedure:
Ia Cephalosporinase derived from Enterobacter cloacae 91.
Test compound solution (100 μg/ml) was incubated for 5 minutes at 37° C. with β-lactamase before determination of enzymatic activity. β-Lactamase activity was measured by direct spectrophotometric assay using a chromogenic cephalosporin as a substrate. The extent of inactivation was expressed as percent ratio of inactivated activity.

The record followed here is patent publication US4640915A, “1-azabicyclo[3.2.0]hept-2-ene-2-carboxylic acid derivatives” (Fujisawa Pharmaceutical Co., Ltd., priority 1982, dated 1987).

SMILES strings stand for the structures. Read-outs that look alike come from different tables or passages of the source. Some results are limits rather than exact numbers.

Chain of Ia Cephalosporinase (P05364 21-381): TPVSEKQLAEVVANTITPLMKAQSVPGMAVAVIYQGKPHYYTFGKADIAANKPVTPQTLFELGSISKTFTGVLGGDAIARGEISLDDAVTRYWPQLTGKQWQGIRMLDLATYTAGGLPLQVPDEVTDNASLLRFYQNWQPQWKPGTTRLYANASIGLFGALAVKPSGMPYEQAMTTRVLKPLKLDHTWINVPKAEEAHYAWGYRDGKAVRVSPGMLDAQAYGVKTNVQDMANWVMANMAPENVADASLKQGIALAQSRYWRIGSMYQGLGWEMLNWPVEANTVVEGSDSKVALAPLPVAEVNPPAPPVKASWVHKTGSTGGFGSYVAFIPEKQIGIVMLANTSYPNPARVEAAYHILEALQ

As for `Cc1nnc(SCC2=C(C(=O)O)N3C(=O)[C@@H](NC(=O)Cn4cnnn4)[C@H]3SC2)s1` [CEZ, Cefazolin, reference compound], the ED50 values in the test with Escherichia coli 36 ((ii) with CEZ) worked out at 20.8 mg/kg.
In the case of `CO/N=C(\C(=O)N[C@@H]1C(=O)N2C(C(=O)O)=CCS[C@H]12)c1csc(N)n1` [CZX, Ceftizoxime, reference compound], the ED50 values with Escherichia coli 36 ((i) with CZX) stood at 3.42 mg/kg.
Take `CC(C)(O)[C@@H]1C(=O)N2C(C(=O)[O-])=C(Sc3ccncc3)C[C@H]12.[Na+]` [Compound A, Sodium (5R, 6R)-3-(4-pyridylthio)-6-(1-hydroxy-1-methylethyl)-7-oxo-1-azabicyclo[3.2.0]hept-2-ene-2-carboxylate]: the MIC in test [1] and in test [2] was 0.1 µg/mL in each case.
Take `Cc1nnc(SC2=C(C(=O)[O-])N3C(=O)[C@@H](C(C)(C)O)[C@H]3C2)s1.[K+]` [Compound B, Potassium (5R, 6R)-3-(5-methyl-1,3,4-thiadiazol-2-ylthio)-6-(1-hydroxy-1-methylethyl)-7-oxo-1-azabicyclo[3.2.0]hept-2-ene-2-carboxylate]: the MIC in test [1] and in test [2] was 0.2 µg/mL in each case.
As to `CC(C)(O)[C@H]1C(=O)N2C(C(=O)[O-])=C(Sc3ccncc3)C[C@H]12.[Na+]` [Compound C, Sodium (5R,6S)-3-(4-pyridylthio)-6-(1-hydroxy-1-methylethyl)-7-oxo-1-azabicyclo[3.2.0]hept-2-ene-2-carboxylate], the ED50 values with Escherichia coli 36 ((i) with CZX) and in the test on Escherichia coli 36 ((ii) with CEZ) was above 112 mg/kg in each case. Moreover, at R-TEM Penicillinase, the “Inactivation (%)” value was above 95%. Further, at Ia Cephalosporinase (100 μg/ml, 5 minutes at 37° C., Ia Cephalosporinase), the inhibition at 100 µg/mL is above 95%.
`Cn1nnnc1SC1=C(C(=O)[O-])N2C(=O)[C@@H](C(C)(C)O)[C@H]2C1.[K+]` [Compound D, Potassium (5R,6R)-3-(1-methyl-1H-tetrazol-5-ylthio)-6-(1-hydroxy-1-methylethyl)-7-oxo-1-azabicyclo[3.2.0]hept-2-ene-2-carboxylate]: the “Inactivation (%)” value on R-TEM Penicillinase was above 95%. Moreover, the inhibition at 100 µg/mL at Ia Cephalosporinase was above 95%.

The term MIC denotes the lowest concentration that inhibits growth of the organism.
